Experimental data as given in patent publication US10292986B2, “Methods for treating epithelian mesenchymal transition related diseases” (THE BOARD OF REGENTS OF THE UNIVERSITY OF TEXAS SYSTEM, priority 2015, dated 2019).

What was measured:
[1] = test system: hSAECs; test: TGFβ-induced EMT gene expression in hSAECs by Q-RT-PCR; type: cell-based, human
Protocol: (§1) hSAECs culture and induction of the EMT transformation. An immortalized human small airway epithelial cell (hSAEC) line established by infecting primary hSAECs with human telomerase (hTERT) and cyclin-dependent kinase (CDK)-4 retrovirus constructs was obtained from John Minna, UTSW (Ramirez et al., 2004, Cancer. Res. 64:9027-34). The immortalized hSAECs were grown in SAGM small airway epithelial cell growth medium (Lonza, Walkersville, MD) in a humidified 5% CO2 atmosphere. For induction of the EMT, hSAECs were TGFIβ-stimulated for 15 d (10 ng/ml, PeproTech, Rocky Hill, NJ). The small-molecule IKK inhibitor BMS345541 was purchased from Sigma Aldrich and used at 10 μM (Burke et al., 2003, J. Biol. Chem. 278:1450-56).
(§2) Quantitative real-time reverse transcription-PCR (Q-RT-PCR). Total RNA was extracted using acid guanidinium phenol extraction (Tri Reagent; Sigma). For gene expression analyses, 1 μg of RNA was reverse-transcribed using SuperScript III in a 20-μl reaction mixture. The rest of the procedures were as described previously (Brasier et al., 2011, J. Virol. 85:11752-69). The forward and reverse gene-specific Q-RT-PCR primers are listed in Table 1; relative changes in gene expression were quantified using the ΔΔCT method.

[2] = test system: 5′ NFκB site of SNAI1, ZEB1, IL-6, and VIM promoters; test: XChIP / Q-gPCR recruitment of transcriptional elongation complex to EMT gene promoters in hSAECs; type: cell-based, human
Protocol: Dual cross-link chromatin immunoprecipitation (XChIP). […] Protein-protein cross-linking was first performed with disuccinimidyl glutarate (2mM, Pierce), followed by protein-DNA cross-linking with formaldehyde. […] Immunoprecipitates were collected with 40 μL protein A magnetic beads (Dynal Inc.), washed, and eluted in 250 μL elution buffer for 15 min at room temperature. Samples were de-cross-linked in 0.2 M NaCl at 65 ° C. for 2 h. The precipitated DNA was phenol/chloroform-extracted, precipitated with 100% ethanol, and dried.
Quantitative real time genomic PCR (Q-gPCR). Gene enrichment in XChIP was determined by Q-gPCR using region-specific PCR primers (Table 2). Standard curves were generated using a dilution series of genomic DNA (from 1 ng to 100 ng) for each primer pair. The fold change of DNA in each immunoprecipitate was determined by normalizing the absolute amount to the input DNA reference and calculating the fold change relative to that amount in unstimulated cells.

[3] = cited from earlier work
[4] = test system: hSAECs; test: TGFβ-induced type II EMT in hSAECs, confocal immunofluorescence microscopy; type: cell-based, human
Protocol: as §1
Immunostaining and Confocal Immunofluorescence Microscopy. hSAECs were incubated±TGFβ (10 ng/mL) for 15 days, re-plated on glass cover slips pretreated with rat tail collagen (Roche Applied Sciences), and fixed with 4% paraformaldehyde in PBS. Afterwards, the fixed cells were stained with Alexa Fluor® 568 phalloidin (Life Technologies) for cytoplasmic distribution of F-actin and also counterstained with 4′, 6-diamidino-2-phenylindole (DAPI) for nuclear staining. The cells were visualized with a Nikon fluorescence confocal microscope at a magnification of 63×.
For immunofluorescence staining, hSAECs were plated on rat tail collagen-treated cover glasses and stimulated for the indicated times. The cells were fixed with 4% paraformaldehyde in PBS and incubated with 0.1 m ammonium chloride for 10 min. Cells were permeabilized with 0.5% Triton-100, followed by incubation in blocking buffer (5% goat serum, 0.1% IGEPAL CA-630, 0.05% NaN3, and 1% BSA) and incubated with anti-SNAIL1, anti-E-Cadherin, and anti-vimentin antibodies (Abs; Abcam, Santa Cruz, Calif.) incubation buffer (0.1% IGEPAL CA-630, 0.05% NaN3, and 2% BSA) overnight at 4 ° C. After washing, cells were stained with Alexa Fluor 488-conjugated goat anti-rabbit IgG (Life Technologies) in incubation buffer for 1 h, then visualized with a Nikon fluorescence confocal microscope, magnification 63×.

[5] = test system: C57BL6/J mice; test: TGFβ-induced pulmonary fibrosis in mice, histology and Ashcroft scoring; type: in vivo
Protocol: (§3) TGFβ-induced pulmonary fibrosis in mice. Male C57BL6/J mice aged 15 weeks were purchased from The Jackson Laboratory (Bar Harbor, Me.) and housed under pathogen-free conditions with food and water ad libitum. Mice were given multiple challenges with 1 μg/mouse of TGFβ every other day for a total of 15 TGFβ treatments. Meanwhile, mice were pre-treated with or without JQ1 (50 mg/kg body weight, i.p.) before TGFβ administration. Ten days after the last TGFβ treatment, bronchoalveolar lavages were obtained for quantifying innate immune cells and measuring cytokine and chemokine secretion; the mice were sacrificed and lung tissues taken for RNA extraction and fixed for histological examination. Whole lungs were inflated under 25 cm H2O pressure with 10% (v/v) neutral buffered formalin through the tracheal cannula and immersed in formalin for at least 24 hours. After being processed into paraffin blocks, the lungs were cut into 5-μm sections and stained either with Masson Trichrome or H&E to assess fibrotic changes in the lungs.
Assessment of levels of pulmonary fibrosis. Pulmonary fibrosis was graded using the Ashcroft scoring method as described (Hubner et al., 2008, Biotechniques. 44:507). In brief, to determine the fibrosis histopathology score for the lung of each mouse, the entire left and right longitudinal lung sections were scored separately (score range, 0 to 9) at ×100 magnification, and the scores were combined (total score range, 0 to 18). […] were intermediate grades assigned on the basis of the predominant histology changes if features described for two distinct grades (as described) were present in the section, to account for the progressive nature of the fibrotic lesion.

[6] = test system: C57BL6/J mice; test: TGFβ-induced pulmonary fibrosis in mice, lung Q-RT-PCR of fibrotic program; type: in vivo; details: JQ1 i.p., repetitive TGFβ stimulation
Protocol: as §2
as §3, with “After being processed into paraffin blocks, the lungs were cut into 5-μm sections and stained either with Masson Trichrome or H&E to assess fibrotic changes in the lungs.” left out

[7] = molecular target: T1, Brd4 (Homo sapiens, UniProt O60885); details: cited from earlier work
[8] = test system: GFP-Brd4; details: cited from earlier work
[9] = molecular target: T1, Brd4; details: chronic treatment; cited from earlier work
[10] = ± BMS-345541 10 μM, TGFβ 0 or 15 d
[11] = JQ1 10 μM, TGFβ 10 ng/mL 15 d, hSAECs
[12] = JQ1 10 μM, TGFβ 10 ng/mL, 15 d time course
[13] = JQ1 i.p. (100 mg/kg in FIG. 11 legend, 50 mg/kg in methods), repetitive intranasal TGFβ 1 μg/mouse

Structure (SMILES): Cc1ccc2nc(NCCN)c3ncc(C)n3c2c1 [BMS-345541]
- TGFβ-induced enhanced mesenchymal gene expression ([1]; IKK kinase inhibitor BMS-345541, hSAECs): inhibited
- BRD4 recruitment to EMT gene promoters (SNAI1, ZEB1, IL-6, VIM) [2, 10]: inhibited
- CDK9 recruitment to EMT gene promoters (SNAI1, ZEB1, IL-6, VIM) [2, 10]: inhibited
- RelA recruitment to EMT gene promoters (SNAI1, ZEB1, IL-6, VIM) [2, 10]: inhibited
- phospho-Ser 2 CTD RNA Pol II recruitment to EMT gene promoters (SNAI1, ZEB1, IL-6, VIM) [2, 10]: inhibited

Structure (SMILES): CCC(=O)O[C@]1(C(=O)SCF)[C@H](C)C[C@H]2[C@@H]3C[C@H](F)C4=CC(=O)C=C[C@]4(C)[C@@]3(F)[C@@H](O)C[C@@]21C [Fluticasone propionate]
- solubility in 95% ethanol ([3]; 95% ethanol): slightly soluble
- solubility in dimethyl sulfoxide ([3]; dimethyl sulfoxide): freely soluble
- solubility in dimethylformamide ([3]; dimethylformamide): freely soluble
- solubility in methanol ([3]; methanol): slightly soluble
- solubility in water ([3]; water): practically insoluble

Structure (SMILES): Cc1sc2c(c1C)C(c1ccc(Cl)cc1)=NC(CC(=O)OC(C)(C)C)c1nnc(C)n1-2 (centres unmarked) [JQ1]
- the EMT (Type II EMT) ([4]; JQ1 10 μM ± TGFβ 10 ng/mL 15 days, FIG. 9A): blocks
- TGFβ-induced acquisition of elongated shape [4, 11]: blocked
- TGFβ-induced stress fiber formation [4, 11]: blocked
- TGFβ-induced upregulation and cytosolic redistribution of SNAI1 [4, 11]: blocked
- TGFβ-induced upregulation and cytosolic redistribution of VIM [4, 11]: blocked
- expression and cellular distribution of CDH1 [4, 11]: maintained
- TGFβ-induced enhanced mesenchymal gene expression ([1]; BRD4 inhibitor JQ1, hSAECs): significantly inhibited
- TGFβ-induced EMT gene expression in hSAECs ([1]; JQ1 10 μM ± TGFβ 10 ng/mL 15 d, FIG. 9B): blocks
- CDH1 expression (mRNA) ([1]; JQ1 10 μM, TGFβ 10 ng/mL, 15 d, not to levels seen in normal hSAECs): partially maintained
- TGFβ-induced expression of FN1 mRNA [1, 12]: significantly blocked
- TGFβ-induced expression of IL-6 mRNA [1, 12]: significantly blocked
- TGFβ-induced expression of SNAI1 mRNA [1, 12]: significantly blocked
- TGFβ-induced expression of VIM mRNA [1, 12]: significantly blocked
- TGFβ-induced expression of ZEB1 mRNA [1, 12]: significantly blocked
- CDK9 recruitment to SNAI1 ([2]; ± JQ1, TGFβ 0 or 15 days): significantly disrupted
- RelA recruitment to SNAI1 ([2]; ± JQ1, TGFβ 0 or 15 days): significantly disrupted
- TGFβ-induced recruitment of BRD4 to the 5′NFκB site of SNAI1 ([2]; ± JQ1, TGFβ 0 or 15 days): significantly attenuated
- phospho-Ser 2 CTD RNA Pol II recruitment to SNAI1 ([2]; ± JQ1, TGFβ 0 or 15 days): significantly disrupted
- TGFβ-induced airway fibrosis [5, 13]: effectively blocked
- lung histology (Masson Trichrome) [5, 13]: histologically normal
- combined Ashcroft score ([5]; JQ1 mice with chronic TGFβ treatment vs chronic TGFβ alone (score 8), total score range 0 to 18): significantly lower
- TGFβ-induced pulmonary fibrotic program (mSNAI1, mFN-1, mαSMA, mCol1A1, mIL-6 mRNA in lung) [6]: significantly inhibited
- recruitment and binding of Brd4 to TNFα and E-selectin promoter elements [7]: inhibits
- recovery time in FRAP assays using GFP-Brd4 [8]: accelerates
- atherogenic responses and atherosclerosis [9]: attenuates
